Measured values: patent publication US11091428B2 (HAPLOGEN GMBH, priority 2016, dated 2021)
Where two headings read alike, the source gives them in different places.

How the values were obtained:
PLA2G16 = target: T1, PLA2G16 (Homo sapiens, UniProt P53816); assay: Enzyme activity assay for PLA2G16 (Red/Green BODIPY PC-A2 fluorescence); assay type: biochemical; details: His-tagged PLA2G16, 4 min pre-incubation, 2 nM to 50 μM; read-out: IC50 values of the compounds determined in the enzyme activity assay for PLA2G16
T1 construct: Hexa-His (N); made in house; host or cells: E. coli BL21(DE3)
T1 sequence (P53816 1-162): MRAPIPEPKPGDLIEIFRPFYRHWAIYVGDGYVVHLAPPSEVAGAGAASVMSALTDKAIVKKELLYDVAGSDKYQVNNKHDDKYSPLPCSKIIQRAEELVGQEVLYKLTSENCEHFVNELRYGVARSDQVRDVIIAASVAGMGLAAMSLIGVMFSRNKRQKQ
In short: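 N-His-tagged human PLA2G16 from E. coli, Ni-NTA purified. Pre-incubated 4 min with compound (2 nM–50 μM final) in pH 8.5 Tris/NaCl buffer with 5 mM glutathione, then BODIPY PC-A2 in DOPC/DOPG/cholesterol vesicles added. Fluorescence (ex 480/em 530 nm) increase over 10 min taken as activity; IC50 by non-linear regression.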

[1] = system: picornaviruses (CVB1, HRV-A2, HRV-A23, EV-68); assay: Anti-picornavirus cytopathic effect (CPE) reduction assay on HeLa H1 cells; assay type: cell-based; details: Enterovirus B, HeLa H1 cells, 48 h, category from averaging the EC50 values from four picornaviruses (CVB1, HRV-A2, HRV-A23, EV68), read-out: EC50 values of the compounds determined in the anti-picornavirus assay
In short: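 HeLa H1 cells pre-treated 2 h with serially diluted compound in DMEM/2% FBS, then infected at an MOI giving full CPE in 2 days. After 48 h at 37° C, viability read by CellTiterBlue fluorescence (ex 560/em 590 nm), normalised to infected and uninfected vehicle controls; EC50 by non-linear regression, category from mean of four viruses.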

Structure (SMILES)	IC50 (PLA2G16) [nM]	EC50 ([1]; HeLa H1, 48 h) [nM]	EC50 ([1]; CVB1|EV68|HRVA2|HRVA23, HeLa H1, 48 h) [nM]
CCC(NC(=O)c1cccnc1)C(=O)C(=O)NCC1CCCCC1 (stereo not drawn) [FP 210, N-(Cyclohexylmethyl)-2-oxo-3-[(pyridin-3-yl)formamido]pentanamide]	< 1000	1000 to 10000	
Cn1nccc1CNC(=O)C(=O)[C@H]1CCC(=O)N1Cc1ccccc1 [FP 296, 2-[(2R)-1-Benzyl-5-oxopyrrolidin-2-yl]-N-[(1-methyl-1H-pyrazol-5-yl)methyl]-2-oxoacetamide]	< 1000	1000 to 10000	
CC(NC(=O)c1ccccc1Br)C(=O)C(=O)NCC1CC1 (stereo not drawn) [FP 166, 3-[(2-Bromophenyl)formamido]-N-(cyclopropylmethyl)-2-oxobutanamide]	< 1000	1000 to 10000	
CC(C)CNC(=O)C(=O)C(C)N(C=O)CC(F)(F)F (stereo not drawn) [FP 46, N-(2-Methylpropyl)-2-oxo-3-[N-(2,2,2-trifluoroethyl)formamido]butanamide]	< 1000	1000 to 10000	
CC(C)CC(C(=O)C(=O)NCC1CC1)N(C=O)C[C@@H]1CCOC1 (stereo partly drawn) [FP 64, N-(Cyclopropylmethyl)-5-methyl-2-oxo-3-(N{[(3S)-oxolan-3-yl]methyl}formamido) hexanamide]	< 1000	1000 to 10000	
CC(C)CC(C(=O)C(=O)NCC1CC1)N(C=O)CC1CC1 (stereo not drawn) [FP 62, N-(Cyclopropylmethyl)-3-[N-(cyclopropylmethyl)formamido]-5-methyl-2-oxohexanamide]	< 1000	< 1000	
CCC(NC(=O)c1ccccc1)C(=O)C(=O)NC1CC1 (stereo not drawn) [FP 183, N-Cyclopropyl-2-oxo-3-(phenylformamido)pentanamide]	1000 to 10000	> 10000	
COc1ccc(CNC(=O)C(=O)C(C)N(C=O)c2ccccc2OC)cc1 (stereo not drawn) [FP 92, 3-[N-(2-Methoxyphenyl)formamido]-N-[(4-methoxyphenyl)methyl]-2-oxobutanamide]	< 1000	1000 to 10000	
CC[C@@H](C)NC(=O)C(=O)C(C)N(C=O)c1ccccc1OC (stereo partly drawn) [FP 102, N-[(2R)-Butan-2-yl]-3-[N-(2-methoxyphenyl)formamido]-2-oxobutanamide]	< 1000	1000 to 10000	
O=C(N[C@H]1CCCC[C@H]1O)C(=O)[C@H]1CCC(=O)N1Cc1ccccc1 (single isomer, unassigned) [FP 273]	1000 to 10000	1000 to 10000	
CC(=O)NCCCCCCCNC(=O)C(=O)C1CCC(=O)N1Cc1ccccc1 (stereo not drawn) [FP 326, 2-(1-Benzyl-5-oxopyrrolidin-2-yl)-N-(7-acetamidoheptyl)-2-oxoacetamide]	< 1000	1000 to 10000	
CC(C)C(=O)NCCNC(=O)C(=O)[C@H]1CCC(=O)N1Cc1ccccc1 [FP 331, N-(2-{2-[(2R)-1-Benzyl-5-oxopyrrolidin-2-yl]-2-oxoacetamido}ethyl)-2-methyl-propanamide]	< 1000	1000 to 10000	
CC(OC1CCCCC1)C(=O)C(=O)NCC1CCC1 (stereo not drawn) [FP 126, N-(Cyclobutylmethyl)-3-(cyclohexyloxy)-2-oxobutanamide]	< 1000	< 1000	
COc1ccccc1C(=O)NC(C)C(=O)C(=O)NCC1CC1 (stereo not drawn) [FP 168, N-(Cyclopropylmethyl)-3-[(2-methoxyphenyl)formamido]-2-oxobutanamide]	< 1000	1000 to 10000	
O=C(NC1CCCC1)C(=O)[C@H]1CCC(=O)N1Cc1ccccc1 [FP 239, 2-[(2R)-1-Benzyl-5-oxopyrrolidin-2-yl]-N-cyclopentyl-2-oxoacetamide]	< 1000	< 1000	
CC(C)CC(OCC1CCOCC1)C(=O)C(=O)NCC1CC1 (stereo not drawn) [FP 130, N-(Cyclopropylmethyl)-5-methyl-3-[(oxan-4-yl)methoxy]-2-oxohexanamide]	< 1000	1000 to 10000	
CC(C)(C#N)CNC(=O)C(=O)[C@H]1CCC(=O)N1Cc1ccccc1 [FP 263, 2-[(2R)-1-Benzyl-5-oxopyrrolidin-2-yl]-N-(2-cyano-2,2-dimethylethyl)-2-oxoacetamide]	< 1000	1000 to 10000	
CC(NC(=O)c1ccccc1)C(=O)C(=O)NCC1CCCCC1 (stereo not drawn) [FP 179, N-(Cyclohexylmethyl)-2-oxo-3-(phenylformamido)butanamide]	< 1000	< 1000	
O=C(COCC1CCCCC1)C(=O)NCC1CC1 [FP 129, 3-(Cyclohexylmethoxy)-N-(cyclopropylmethyl)-2-oxopropanamide]	< 1000	> 10000	
CNC(=O)C(=O)C(C(C)C)N(C=O)Cc1ccccc1 (stereo not drawn) [FP 197, 3-(N-Benzylformamido)-N,4-dimethyl-2-oxopentanamide]	< 1000	> 10000	

Structure (SMILES)	IC50 (PLA2G16) [nM]	EC50 ([1]; HeLa H1, 48 h) [nM]	EC50 ([1]; CVB1|EV68|HRVA2|HRVA23, HeLa H1, 48 h) [nM]
CCC(C(=O)C(=O)NCc1cccc(Cl)c1)N(C=O)c1ccccc1OC (stereo not drawn) [FP 12, N-[(3-Chlorophenyl)methyl]-3-[N-(2-methoxyphenyl)formamido]-2-oxopentanamide]	< 1000	1000 to 10000	
CC(C)NC(=O)C(=O)C(C)OC1CCCCC1 (stereo not drawn) [FP 125, 3-(Cyclohexyloxy)-2-oxo-N-(propan-2-yl)butanamide]	1000 to 10000	1000 to 10000	
CC(C(=O)C(=O)NCC1CC1)N(C)C(=O)c1ccccc1 (stereo not drawn) [FP 149, N-(Cyclopropylmethyl)-3-(N-methyl-1-phenylformamido)-2-oxobutanamide]	< 1000	1000 to 10000	
CC(NS(=O)(=O)c1ccccc1)C(=O)C(=O)NCC1CCCCC1 (stereo not drawn) [FP 218, 3-Benzenesulfonamido-N-(cyclohexylmethyl)-2-oxobutanamide]	< 1000	1000 to 10000	
COc1ccccc1N(C=O)C(C)C(=O)C(=O)N[C@H](C)C(C)C (stereo partly drawn) [FP 107, 3-[N-(2-Methoxyphenyl)formamido]-N-[(2R)-3-methylbutan-2-yl]-2-oxobutanamide]	< 1000	1000 to 10000	
O=C(NCC1CC1)C(=O)C1CCC(=O)N1CCc1ccccc1 (stereo not drawn) [FP 253, N-(Cyclopropylmethyl)-2-oxo-2-[5-oxo-1-(2-phenylethyl)pyrrolidin-2-yl]]	< 1000	1000 to 10000	
O=C(NCCCc1nccs1)C(=O)C1CCC(=O)N1Cc1ccccc1 (stereo not drawn) [FP 229, 2-(1-Benzyl-5-oxopyrrolidin-2-yl)-2-oxo-N-[3-(1,3-thiazol-2-yl)propyl]acetamide]	< 1000	< 1000	
CC(C(=O)C(=O)NCC1CC1)N(C)S(=O)(=O)c1ccccc1 (stereo not drawn) [FP 221, N-(Cyclopropylmethyl)-3-(N-methylbenzenesulfonamido)-2-oxobutanamide]	< 1000	> 10000	
Cc1ccc(CN2C(=O)CCC2C(=O)C(=O)NC2CC2)s1 (stereo not drawn) [FP 277, N-Cyclopropyl-2-{1-[(5-methylthiophen-2-yl)methyl]-5-oxopyrrolidin-2-yl}-2-oxoacetamide]	< 1000	1000 to 10000	
CC(C)NC(=O)C(=O)C(C)N(C=O)Cc1ccccc1 (stereo not drawn) [FP 57, 3-(N-Benzylformamido)-2-oxo-N-(propan-2-yl)butanamide]	< 1000	1000 to 10000	
CCC(NC(=O)c1cnccc1C)C(=O)C(=O)NCC1CCCCC1 (stereo not drawn) [FP 211, N-(Cyclohexylmethyl)-3-[(4-methylpyridin-3-yl)formamido]-2-oxopentanamide]	< 1000	1000 to 10000	
CC(C(=O)C(=O)NCc1cccc(Cl)c1)N(C)C(=O)c1ccccc1 (stereo not drawn) [FP 160, N-[(3-Chlorophenyl)methyl]-3-(N-methyl-1-phenylformamido)-2-oxobutanamide]	< 1000	1000 to 10000	
COc1ccccc1N(C=O)C(C)C(=O)C(=O)NCc1c(C)cccc1C (stereo not drawn) [FP 99, N-[(2,6-Dimethylphenyl)methyl]-3-[N-(2-methoxyphenyl)formamido]-2-oxobutanamide]	< 1000	1000 to 10000	
COc1ccccc1N(C=O)C(C)C(=O)C(=O)NCc1cccnc1 (stereo not drawn) [FP 89, 3-[N-(2-Methoxyphenyl)formamido]-2-oxo-A[(pyridin-3-yl)methyl]butanamide]	< 1000	> 10000	
O=C(NC1CC1)C(=O)C1CCC(=O)N1Cc1ccccc1 (stereo not drawn)	< 1000		1000 to 10000
CCC(=O)N(C)C(C)C(=O)C(=O)NCC1CCCCC1 (stereo not drawn) [FP 145, N-(Cyclohexylmethyl)-3-(N-methylpropanamido)-2-oxobutanamide]	< 1000	1000 to 10000	
Cc1nc(C)n(CCCNC(=O)C(=O)C2CCC(=O)N2Cc2ccccc2)n1 (stereo not drawn) [FP 231, 2-(1-Benzyl-5-oxopyrrolidin-2-yl)-N-[3-(3,5-dimethyl-1H-1,2,4-triazol-1-yl)propyl]-2-oxoacetamide]	< 1000	> 10000	
N#CC1CC(NC(=O)C(=O)[C@H]2CCC(=O)N2Cc2ccccc2)C1 (stereo partly drawn) [FP 303, 2-[(2R)-1-Benzyl-5-oxopyrrolidin-2-yl]-N-(3-cyanocyclobutyl)-2-oxoacetamide]	< 1000	1000 to 10000	
CC(C)[C@@H](C(=O)C(=O)NCC1CC1)N(C=O)CC(C)(C)C (single isomer, unassigned) [FP 33]	< 1000	1000 to 10000	
